# Reference: ChEMBL document CHEMBL1201861, “Genomics of Drug Sensitity in Cancer screening data, Wellcome Trust Sanger Institute”
# pIC50: −log10 of the molar value.
# Key:
# Type in all cases: functional, cell-based
# HCC2157 = assay: cells; conditions: Homo sapiens;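 further: growth inhibition of the cancer cell line, read out as cell viability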
# Description: SANGER: Inhibition of human HCC2157 cell growth in a cell viability assay.
# A253 cell line = assay: cells; conditions: Homo sapiens;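 further: growth inhibition of A253 cells, read out with a cell viability assay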
# Description: SANGER: Inhibition of human A253 cell growth in a cell viability assay.
# AN3-CA = assay: cells; conditions: Homo sapiens;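 further: growth inhibition of human AN3-CA cells measured by a cell viability assay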
# Description: SANGER: Inhibition of human AN3-CA cell growth in a cell viability assay.
# BHT-101 = assay: cells; conditions: Homo sapiens
# Description: SANGER: Inhibition of human BHT-101 cell growth in a cell viability assay.
# CHP-212 = assay: cells; conditions: Homo sapiens
# Description: SANGER: Inhibition of human CHP-212 cell growth in a cell viability assay.
# NCI-H1703 = assay: cells; conditions: Homo sapiens;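 further: growth inhibition of NCI-H1703 cells, read out via a cell viability assay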
# Description: SANGER: Inhibition of human NCI-H1703 cell growth in a cell viability assay.
# NCI-H524 = assay: cells; conditions: Homo sapiens;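 further: growth inhibition of human NCI-H524 cells, read out through a cell viability assay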
# Description: SANGER: Inhibition of human NCI-H524 cell growth in a cell viability assay.
# ME-180 = assay: cells; conditions: Homo sapiens;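 further: cell viability assay measuring growth inhibition of ME-180 cells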
# Description: SANGER: Inhibition of human ME-180 cell growth in a cell viability assay.
# DK-MG = assay: cells; conditions: Homo sapiens;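 further: growth inhibition of DK-MG cells, read out with a cell viability assay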
# Description: SANGER: Inhibition of human DK-MG cell growth in a cell viability assay.
# RL = assay: cells; conditions: Homo sapiens
# Description: SANGER: Inhibition of human RL cell growth in a cell viability assay.
# KU-19-19 = assay: cells; conditions: Homo sapiens
# Description: SANGER: Inhibition of human KU-19-19 cell growth in a cell viability assay.
# NCI-H1563 = assay: cells; conditions: Homo sapiens;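 further: growth inhibition of human NCI-H1563 cells, read out with a cell viability assay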
# Description: SANGER: Inhibition of human NCI-H1563 cell growth in a cell viability assay.
# PA-1 = assay: cells; conditions: Homo sapiens;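 further: IC50 for suppression of PA-1 cell proliferation, determined with a cell viability read-out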
# Description: SANGER: Inhibition of human PA-1 cell growth in a cell viability assay.
# REH = assay: cells; conditions: Homo sapiens;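 further: growth inhibition of REH cells determined with a cell viability read-out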
# Description: SANGER: Inhibition of human REH cell growth in a cell viability assay.
# SNU-423 = assay: cells; conditions: Homo sapiens
# Description: SANGER: Inhibition of human SNU-423 cell growth in a cell viability assay.
# PANC-08-13 = assay: cells; conditions: Homo sapiens
# Description: SANGER: Inhibition of human PANC-08-13 cell growth in a cell viability assay.
# NCI-H1436 = assay: cells; conditions: Homo sapiens;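 further: growth suppression of human NCI-H1436 cells, determined with a cell viability readout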
# Description: SANGER: Inhibition of human NCI-H1436 cell growth in a cell viability assay.
# NCI-H1694 = assay: cells; conditions: Homo sapiens;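 further: cell viability assay measuring inhibition of growth in human NCI-H1694 cells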
# Description: SANGER: Inhibition of human NCI-H1694 cell growth in a cell viability assay.
# G-361 = assay: cells; conditions: Homo sapiens
# T47D = assay: cells; conditions: Homo sapiens;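 further: growth inhibition of human T47D cells, measured with a cell viability assay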
# Description: SANGER: Inhibition of human T47D cell growth in a cell viability assay.
# PC-14 = assay: cells; conditions: Homo sapiens;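 further: cell viability assay measuring inhibition of PC-14 cell growth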
# Description: SANGER: Inhibition of human PC-14 cell growth in a cell viability assay.
# HCC70 = assay: cells; conditions: Homo sapiens;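 further: cell viability assay measuring how strongly the compound suppresses proliferation of HCC70 cells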
# Description: SANGER: Inhibition of human HCC70 cell growth in a cell viability assay.
# A-375 = assay: cells; conditions: Homo sapiens;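 further: growth inhibition of A375 cells, read out with a cell viability assay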
# Description: SANGER: Inhibition of human A375 cell growth in a cell viability assay.
# Panc1005 = assay: cells; conditions: Homo sapiens;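 further: growth inhibition of human PANC-10-05 cells, measured by a cell viability assay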
# Description: SANGER: Inhibition of human PANC-10-05 cell growth in a cell viability assay.
# SCC-3 = assay: cells; conditions: Homo sapiens;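 further: cell viability assay measuring inhibition of SCC-3 cell growth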
# Description: SANGER: Inhibition of human SCC-3 cell growth in a cell viability assay.
# DG-75 = assay: cells; conditions: Homo sapiens;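 further: growth inhibition of DG-75 cells, read out with a cell viability assay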
# Description: SANGER: Inhibition of human DG-75 cell growth in a cell viability assay.
# SKG-IIIa = assay: cells; conditions: Homo sapiens;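 further: cell growth inhibition, read out with a cell viability assay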
# Description: SANGER: Inhibition of human SKG-IIIa cell growth in a cell viability assay.
# KYSE-70 cell line = assay: cells; conditions: Homo sapiens;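 further: cell viability assay read-out, with IC50 expressing suppression of KYSE-70 cell growth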
# Description: SANGER: Inhibition of human KYSE-70 cell growth in a cell viability assay.
# COR-L279 = assay: SANGER: Inhibition of human COR-L279 cell growth in a cell viability assay.
# HSC-2 = assay: cells; conditions: Homo sapiens;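 further: growth inhibition of human HSC-2 cells, read out by a cell viability assay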
# Description: SANGER: Inhibition of human HSC-2 cell growth in a cell viability assay.
# NCI-H441 = assay: cells; conditions: Homo sapiens;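 further: growth inhibition of NCI-H441 cells, read out with a cell viability assay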
# Description: SANGER: Inhibition of human NCI-H441 cell growth in a cell viability assay.
# KYSE-180 = assay: cells; conditions: Homo sapiens;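 further: growth inhibition of KYSE-180 cells, read out with a cell viability assay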
# Description: SANGER: Inhibition of human KYSE-180 cell growth in a cell viability assay.
# S-117 = assay: cells; conditions: Homo sapiens
# Description: SANGER: Inhibition of human S-117 cell growth in a cell viability assay.
# NCI-H522 = assay: cells; conditions: Homo sapiens;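 further: cell viability assay measuring growth inhibition of human NCI-H522 cells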
# Description: SANGER: Inhibition of human NCI-H522 cell growth in a cell viability assay.
# NY = assay: cells; conditions: Homo sapiens
# Description: SANGER: Inhibition of human NY cell growth in a cell viability assay.
# AU565 = assay: cells; conditions: Homo sapiens;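 further: cell viability assay measuring growth inhibition of human AU565 cells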
# Description: SANGER: Inhibition of human AU565 cell growth in a cell viability assay.
# COLO-792 = assay: cells; conditions: Homo sapiens
# Description: SANGER: Inhibition of human COLO-792 cell growth in a cell viability assay.
# U-698-M = assay: cells; conditions: Homo sapiens
# Description: SANGER: Inhibition of human U-698-M cell growth in a cell viability assay.
# Raji = assay: cells; conditions: Homo sapiens;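 further: cell viability assay measuring inhibition of Raji cell growth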
# Description: SANGER: Inhibition of human Raji cell growth in a cell viability assay.
# CA46 = assay: cells; conditions: Homo sapiens;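 further: growth inhibition of human CA46 cells, read out by a cell viability assay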
# Description: SANGER: Inhibition of human CA46 cell growth in a cell viability assay.
# YKG-1 = assay: cells; conditions: Homo sapiens;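 further: cell growth inhibition, read out with a viability assay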
# Description: SANGER: Inhibition of human YKG-1 cell growth in a cell viability assay.
# A 172 = assay: cells; conditions: Homo sapiens;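 further: growth inhibition of A172 cells, measured with a cell viability readout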
# Description: SANGER: Inhibition of human A172 cell growth in a cell viability assay.
# MIA PaCa-2 = assay: cells; conditions: Homo sapiens;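 further: growth inhibition of MIA PaCa-2 cells, read out with a cell viability assay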
# Description: SANGER: Inhibition of human MIA-PaCa-2 cell growth in a cell viability assay.
# SW48 = assay: cells; conditions: Homo sapiens;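 further: growth inhibition of SW48 cells, read out with a cell viability assay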
# Description: SANGER: Inhibition of human SW48 cell growth in a cell viability assay.
# KP-4 = assay: cells; conditions: Homo sapiens;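 further: human KP-4 cells, with growth inhibition read out through a cell viability assay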
# Description: SANGER: Inhibition of human KP-4 cell growth in a cell viability assay.
# COLO-679 = assay: cells; conditions: Homo sapiens
# Description: SANGER: Inhibition of human COLO-679 cell growth in a cell viability assay.
# SCC-4 = assay: cells; conditions: Homo sapiens;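 further: growth inhibition of human SCC-4 cells, read out as cell viability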
# Description: SANGER: Inhibition of human SCC-4 cell growth in a cell viability assay.
# Detroit 562 = assay: cells; conditions: Homo sapiens;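 further: growth inhibition of human Detroit 562 cells, read out by a cell viability assay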
# Description: SANGER: Inhibition of human Detroit562 cell growth in a cell viability assay.
# C3A = assay: cells; conditions: Homo sapiens;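 further: growth inhibition of C3A human cells, quantified with a cell viability readout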
# Description: SANGER: Inhibition of human C3A cell growth in a cell viability assay.
# A673 = assay: cells; conditions: Homo sapiens;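 further: growth inhibition of human A673 cells, read out through a cell viability assay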
# Description: SANGER: Inhibition of human A673 cell growth in a cell viability assay.
# NCI-H2347 = assay: cells; conditions: Homo sapiens;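 further: growth inhibition of the cell line, read out with a cell viability assay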
# Description: SANGER: Inhibition of human NCI-H2347 cell growth in a cell viability assay.
# EFO-21 = assay: cells; conditions: Homo sapiens;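 further: growth inhibition of EFO-21 cells measured with a viability assay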
# Description: SANGER: Inhibition of human EFO-21 cell growth in a cell viability assay.
# HCC1954 = assay: cells; conditions: Homo sapiens;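 further: growth inhibition of human HCC1954 cells, read out with a cell viability assay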
# Description: SANGER: Inhibition of human HCC1954 cell growth in a cell viability assay.
# Ca-Ski = assay: cells; conditions: Homo sapiens;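 further: cell viability assay measuring inhibition of Ca-Ski cell growth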
# Description: SANGER: Inhibition of human Ca-Ski cell growth in a cell viability assay.
# OVCAR-5 = assay: cells; conditions: Homo sapiens;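 further: growth inhibition of human OVCAR-5 cells, read out with a cell viability assay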
# Description: SANGER: Inhibition of human OVCAR-5 cell growth in a cell viability assay.
# ST486 = assay: SANGER: Inhibition of human ST486 cell growth in a cell viability assay.
# GDM-1 = assay: cells; conditions: Homo sapiens;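 further: cell viability readout used to measure growth inhibition of human GDM-1 cells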
# Description: SANGER: Inhibition of human GDM-1 cell growth in a cell viability assay.
# NCI-H1963 = assay: cells; conditions: Homo sapiens;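 further: cell growth inhibition of the human line, determined with a cell viability assay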
# Description: SANGER: Inhibition of human NCI-H1963 cell growth in a cell viability assay.
# PC-3 = assay: cells; conditions: Homo sapiens;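 further: cell viability assay measuring growth inhibition of PC-3 cells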
# Description: SANGER: Inhibition of human PC-3 cell growth in a cell viability assay.
# MEL-HO = assay: cells; conditions: Homo sapiens
# Description: SANGER: Inhibition of human MEL-HO cell growth in a cell viability assay.
# EFM-19 = assay: cells; conditions: Homo sapiens;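 further: growth inhibition of human EFM-19 cells, measured in a cell viability assay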
# Description: SANGER: Inhibition of human EFM-19 cell growth in a cell viability assay.
# A2780 = assay: cells; conditions: Homo sapiens;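 further: growth inhibition of A2780 cells, read out with a cell viability assay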
# Description: SANGER: Inhibition of human A2780 cell growth in a cell viability assay.
structure (smiles),measurement,setting,value
C/C(O)=C(\C#N)C(=O)Nc1cc(Br)ccc1Br,pIC50,HCC2157,< 4.80
same,pIC50,A253 cell line,< 4.80
same,pIC50,AN3-CA,< 4.80
same,pIC50,BHT-101,< 4.80
same,pIC50,CHP-212,< 4.80
same,pIC50,NCI-H1703,< 4.80
same,pIC50,NCI-H524,< 4.80
same,pIC50,ME-180,< 4.80
same,pIC50,DK-MG,< 4.80
same,pIC50,RL,< 4.80
same,pIC50,KU-19-19,< 4.80
same,pIC50,NCI-H1563,< 4.80
same,pIC50,PA-1,< 4.80
same,pIC50,REH,< 4.80
same,pIC50,SNU-423,< 4.80
same,pIC50,PANC-08-13,< 4.80
same,pIC50,NCI-H1436,< 4.80
same,pIC50,NCI-H1694,< 4.80
same,pIC50,G-361,< 4.80
same,pIC50,T47D,< 4.80
same,pIC50,PC-14,< 4.80
same,pIC50,HCC70,< 4.80
same,pIC50,A-375,< 4.80
same,pIC50,Panc1005,< 4.80
same,pIC50,SCC-3,< 4.80
same,pIC50,DG-75,< 4.80
same,pIC50,SKG-IIIa,< 4.80
same,pIC50,KYSE-70 cell line,< 4.80
same,pIC50,COR-L279,< 4.80
same,pIC50,HSC-2,< 4.80
same,pIC50,NCI-H441,< 4.80
same,pIC50,KYSE-180,< 4.80
same,pIC50,S-117,< 4.80
same,pIC50,NCI-H522,< 4.80
same,pIC50,NY,< 4.80
same,pIC50,AU565,< 4.80
same,pIC50,COLO-792,< 4.80
same,pIC50,U-698-M,< 4.80
same,pIC50,Raji,< 4.80
same,pIC50,CA46,< 4.80
same,pIC50,YKG-1,< 4.80
same,pIC50,A 172,< 4.80
same,pIC50,MIA PaCa-2,< 4.80
same,pIC50,SW48,< 4.80
same,pIC50,KP-4,< 4.80
same,pIC50,COLO-679,< 4.80
same,pIC50,SCC-4,< 4.80
same,pIC50,Detroit 562,< 4.80
same,pIC50,C3A,< 4.80
same,pIC50,A673,< 4.80
same,pIC50,NCI-H2347,< 4.80
same,pIC50,EFO-21,< 4.80
same,pIC50,HCC1954,< 4.80
same,pIC50,Ca-Ski,< 4.80
same,pIC50,OVCAR-5,< 4.80
same,pIC50,ST486,< 4.80
same,pIC50,GDM-1,< 4.80
same,pIC50,NCI-H1963,< 4.80
same,pIC50,PC-3,< 4.80
same,pIC50,MEL-HO,< 4.80
same,pIC50,EFM-19,< 4.80
same,pIC50,A2780,< 4.80
CC(O)(CS(=O)(=O)c1ccc(F)cc1)C(=O)Nc1ccc(C#N)c(C(F)(F)F)c1 (centres undefined) [BICALUTAMIDE],pIC50,HCC2157,< 5.99
same,pIC50,A253 cell line,< 5.99
same,pIC50,AN3-CA,< 5.99
same,pIC50,BHT-101,< 5.99
same,pIC50,CHP-212,< 5.99
same,pIC50,NCI-H1703,< 5.99
same,pIC50,NCI-H524,< 5.99
same,pIC50,ME-180,< 5.99
same,pIC50,DK-MG,< 5.99
same,pIC50,RL,< 5.99
same,pIC50,KU-19-19,< 5.99
same,pIC50,NCI-H1563,< 5.99
same,pIC50,PA-1,< 5.99
same,pIC50,REH,< 5.99
same,pIC50,SNU-423,< 5.99
same,pIC50,PANC-08-13,< 5.99
same,pIC50,NCI-H1436,< 5.99
same,pIC50,NCI-H1694,< 5.99
same,pIC50,G-361,< 5.99
same,pIC50,T47D,< 5.99
same,pIC50,PC-14,< 5.99
same,pIC50,HCC70,< 5.99
same,pIC50,A-375,< 5.99
same,pIC50,Panc1005,< 5.99
same,pIC50,SCC-3,< 5.99
same,pIC50,DG-75,< 5.99
same,pIC50,SKG-IIIa,< 5.99
same,pIC50,KYSE-70 cell line,< 5.99
same,pIC50,COR-L279,< 5.99
same,pIC50,HSC-2,< 5.99
same,pIC50,NCI-H441,< 5.99
same,pIC50,KYSE-180,< 5.99
same,pIC50,S-117,< 5.99
same,pIC50,NCI-H522,< 5.99
same,pIC50,NY,< 5.99
same,pIC50,AU565,< 5.99
same,pIC50,COLO-792,< 5.99
same,pIC50,U-698-M,< 5.99
same,pIC50,Raji,< 5.99
same,pIC50,CA46,< 5.99
same,pIC50,YKG-1,< 5.99
same,pIC50,A 172,< 5.99
same,pIC50,MIA PaCa-2,< 5.99
same,pIC50,SW48,< 5.99
same,pIC50,KP-4,< 5.99
same,pIC50,COLO-679,< 5.99
same,pIC50,SCC-4,< 5.99
same,pIC50,Detroit 562,< 5.99
same,pIC50,C3A,< 5.99
same,pIC50,A673,< 5.99
same,pIC50,NCI-H2347,< 5.99
same,pIC50,EFO-21,< 5.99
same,pIC50,HCC1954,< 5.99
same,pIC50,Ca-Ski,< 5.99
same,pIC50,OVCAR-5,< 5.99
same,pIC50,ST486,< 5.99
same,pIC50,GDM-1,< 5.99
same,pIC50,NCI-H1963,< 5.99
same,pIC50,PC-3,< 5.99
same,pIC50,MEL-HO,< 5.99
same,pIC50,EFM-19,< 5.99
same,pIC50,A2780,< 5.99
